IC50 data for 24 molecules are collected here from patent US10125098B2, “Therapeutic compounds and methods of use thereof” (GENENTECH, INC., priority 2014, dated 2018).

Read-outs that look alike come from different tables or passages of the source.

In one series the target is T1, hNav1.7 (Homo sapiens, UniProt Q15858).
T1 construct: expressed in transfected cells
The series can be described thus: Tritiated compound binding (LBA) to membranes from cells expressing hNav1.7 and the β1 subunit, competitive binding. The settings on record: competitive binding vs 100 pM [3H]compound, 18 h, room temperature, membranes with hNav1.7 and β1 subunit. The method, boiled down: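 Membranes from cells expressing hNav1.7 with β1 were incubated 18 h at room temperature with 100 pM tritiated formula (I) compound and increasing test compound, in 100 mM NaCl, 20 mM Tris HCl pH 7.4, 0.01% BSA.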

The target in the next series is T2, NaV1.5 (Homo sapiens, UniProt Q14524).
T2 construct: permanently transfected with an expression vector containing the full-length cDNA coding for the desired human sodium channel α-subunit; expressed in transfected cells; host or cells: HEK-293
T2 sequence (Q14524 whole entry): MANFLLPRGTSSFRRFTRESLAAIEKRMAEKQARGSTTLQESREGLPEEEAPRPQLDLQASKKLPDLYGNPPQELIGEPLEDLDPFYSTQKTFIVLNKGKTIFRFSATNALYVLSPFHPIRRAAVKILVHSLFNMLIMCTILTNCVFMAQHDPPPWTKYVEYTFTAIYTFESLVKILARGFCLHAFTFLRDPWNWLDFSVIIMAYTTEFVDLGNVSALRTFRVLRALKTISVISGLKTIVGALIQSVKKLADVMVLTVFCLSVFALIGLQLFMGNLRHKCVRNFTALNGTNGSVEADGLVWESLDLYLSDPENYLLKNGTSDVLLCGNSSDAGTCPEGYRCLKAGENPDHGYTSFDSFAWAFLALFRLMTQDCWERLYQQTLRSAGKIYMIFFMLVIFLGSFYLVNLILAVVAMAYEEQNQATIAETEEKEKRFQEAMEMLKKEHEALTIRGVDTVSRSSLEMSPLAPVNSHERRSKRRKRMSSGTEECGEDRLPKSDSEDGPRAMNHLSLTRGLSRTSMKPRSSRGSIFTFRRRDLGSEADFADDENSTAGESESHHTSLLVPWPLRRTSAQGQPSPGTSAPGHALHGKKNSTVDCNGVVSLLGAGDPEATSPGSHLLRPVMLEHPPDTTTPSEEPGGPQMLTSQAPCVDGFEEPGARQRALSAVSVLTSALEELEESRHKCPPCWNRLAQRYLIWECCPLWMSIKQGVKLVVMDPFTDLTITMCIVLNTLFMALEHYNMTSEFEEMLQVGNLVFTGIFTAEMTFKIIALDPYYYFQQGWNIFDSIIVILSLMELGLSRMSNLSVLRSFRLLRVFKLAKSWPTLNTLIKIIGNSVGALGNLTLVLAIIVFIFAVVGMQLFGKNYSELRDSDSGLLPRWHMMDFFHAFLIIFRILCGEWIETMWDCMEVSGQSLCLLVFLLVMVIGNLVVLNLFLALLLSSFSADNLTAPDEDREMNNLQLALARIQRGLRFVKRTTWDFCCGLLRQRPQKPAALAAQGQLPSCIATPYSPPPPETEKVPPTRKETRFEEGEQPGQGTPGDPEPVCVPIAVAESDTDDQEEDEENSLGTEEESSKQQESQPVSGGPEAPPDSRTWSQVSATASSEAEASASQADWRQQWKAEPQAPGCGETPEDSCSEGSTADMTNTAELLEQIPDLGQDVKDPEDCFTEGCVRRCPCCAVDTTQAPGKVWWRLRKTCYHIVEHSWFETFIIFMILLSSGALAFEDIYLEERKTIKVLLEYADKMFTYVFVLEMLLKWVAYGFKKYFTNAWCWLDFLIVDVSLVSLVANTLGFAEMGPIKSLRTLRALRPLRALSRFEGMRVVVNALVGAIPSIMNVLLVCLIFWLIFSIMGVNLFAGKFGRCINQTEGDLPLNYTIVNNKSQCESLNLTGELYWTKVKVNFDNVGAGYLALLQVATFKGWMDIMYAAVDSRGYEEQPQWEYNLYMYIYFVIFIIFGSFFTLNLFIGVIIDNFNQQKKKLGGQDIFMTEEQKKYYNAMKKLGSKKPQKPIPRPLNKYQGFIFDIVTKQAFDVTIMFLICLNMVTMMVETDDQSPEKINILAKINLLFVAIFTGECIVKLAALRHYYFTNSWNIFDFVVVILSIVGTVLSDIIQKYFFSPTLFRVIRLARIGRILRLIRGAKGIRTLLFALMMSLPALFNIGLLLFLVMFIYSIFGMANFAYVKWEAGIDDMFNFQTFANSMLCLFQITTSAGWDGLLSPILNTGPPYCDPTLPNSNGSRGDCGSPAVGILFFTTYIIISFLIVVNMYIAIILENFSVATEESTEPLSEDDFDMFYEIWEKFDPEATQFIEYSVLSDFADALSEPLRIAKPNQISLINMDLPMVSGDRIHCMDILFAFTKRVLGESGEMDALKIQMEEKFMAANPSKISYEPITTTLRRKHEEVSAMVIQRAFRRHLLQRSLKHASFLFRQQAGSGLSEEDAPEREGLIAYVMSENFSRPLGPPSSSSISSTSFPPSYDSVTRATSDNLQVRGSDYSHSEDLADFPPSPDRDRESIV
As to the kind of experiment: Patch voltage clamp electrophysiology assay (EP), NaV1.5. Type of series: cell-based. The conditions noted are these: HEK-293 cells stably expressing NaV1.5 with β1 subunit, whole-cell patch clamp, membrane potential −60 mV (inactivated state). The method, boiled down: (§1)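 HEK-293 cells stably expressing human α-subunit with β1; whole-cell patch clamp (PatchXpress or manual), ambient temperature, pH 7.4 external NaCl, CsF internal. Held at −60 mV (full inactivation), stepped to −150 mV for 20 ms, then test pulse; percent current decrease after compound wash-on taken as block.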
In general terms: In patch-clamp work, channel activity is measured electrically.

The target in another series is T3, human NaV1.7 (Homo sapiens, UniProt Q15858).
T3 construct: permanently transfected with an expression vector containing the full-length cDNA coding for the desired human sodium channel α-subunit; expressed in transfected cells; host or cells: HEK-293
T3 sequence (Q15858 1-1977 isoform Q15858-3): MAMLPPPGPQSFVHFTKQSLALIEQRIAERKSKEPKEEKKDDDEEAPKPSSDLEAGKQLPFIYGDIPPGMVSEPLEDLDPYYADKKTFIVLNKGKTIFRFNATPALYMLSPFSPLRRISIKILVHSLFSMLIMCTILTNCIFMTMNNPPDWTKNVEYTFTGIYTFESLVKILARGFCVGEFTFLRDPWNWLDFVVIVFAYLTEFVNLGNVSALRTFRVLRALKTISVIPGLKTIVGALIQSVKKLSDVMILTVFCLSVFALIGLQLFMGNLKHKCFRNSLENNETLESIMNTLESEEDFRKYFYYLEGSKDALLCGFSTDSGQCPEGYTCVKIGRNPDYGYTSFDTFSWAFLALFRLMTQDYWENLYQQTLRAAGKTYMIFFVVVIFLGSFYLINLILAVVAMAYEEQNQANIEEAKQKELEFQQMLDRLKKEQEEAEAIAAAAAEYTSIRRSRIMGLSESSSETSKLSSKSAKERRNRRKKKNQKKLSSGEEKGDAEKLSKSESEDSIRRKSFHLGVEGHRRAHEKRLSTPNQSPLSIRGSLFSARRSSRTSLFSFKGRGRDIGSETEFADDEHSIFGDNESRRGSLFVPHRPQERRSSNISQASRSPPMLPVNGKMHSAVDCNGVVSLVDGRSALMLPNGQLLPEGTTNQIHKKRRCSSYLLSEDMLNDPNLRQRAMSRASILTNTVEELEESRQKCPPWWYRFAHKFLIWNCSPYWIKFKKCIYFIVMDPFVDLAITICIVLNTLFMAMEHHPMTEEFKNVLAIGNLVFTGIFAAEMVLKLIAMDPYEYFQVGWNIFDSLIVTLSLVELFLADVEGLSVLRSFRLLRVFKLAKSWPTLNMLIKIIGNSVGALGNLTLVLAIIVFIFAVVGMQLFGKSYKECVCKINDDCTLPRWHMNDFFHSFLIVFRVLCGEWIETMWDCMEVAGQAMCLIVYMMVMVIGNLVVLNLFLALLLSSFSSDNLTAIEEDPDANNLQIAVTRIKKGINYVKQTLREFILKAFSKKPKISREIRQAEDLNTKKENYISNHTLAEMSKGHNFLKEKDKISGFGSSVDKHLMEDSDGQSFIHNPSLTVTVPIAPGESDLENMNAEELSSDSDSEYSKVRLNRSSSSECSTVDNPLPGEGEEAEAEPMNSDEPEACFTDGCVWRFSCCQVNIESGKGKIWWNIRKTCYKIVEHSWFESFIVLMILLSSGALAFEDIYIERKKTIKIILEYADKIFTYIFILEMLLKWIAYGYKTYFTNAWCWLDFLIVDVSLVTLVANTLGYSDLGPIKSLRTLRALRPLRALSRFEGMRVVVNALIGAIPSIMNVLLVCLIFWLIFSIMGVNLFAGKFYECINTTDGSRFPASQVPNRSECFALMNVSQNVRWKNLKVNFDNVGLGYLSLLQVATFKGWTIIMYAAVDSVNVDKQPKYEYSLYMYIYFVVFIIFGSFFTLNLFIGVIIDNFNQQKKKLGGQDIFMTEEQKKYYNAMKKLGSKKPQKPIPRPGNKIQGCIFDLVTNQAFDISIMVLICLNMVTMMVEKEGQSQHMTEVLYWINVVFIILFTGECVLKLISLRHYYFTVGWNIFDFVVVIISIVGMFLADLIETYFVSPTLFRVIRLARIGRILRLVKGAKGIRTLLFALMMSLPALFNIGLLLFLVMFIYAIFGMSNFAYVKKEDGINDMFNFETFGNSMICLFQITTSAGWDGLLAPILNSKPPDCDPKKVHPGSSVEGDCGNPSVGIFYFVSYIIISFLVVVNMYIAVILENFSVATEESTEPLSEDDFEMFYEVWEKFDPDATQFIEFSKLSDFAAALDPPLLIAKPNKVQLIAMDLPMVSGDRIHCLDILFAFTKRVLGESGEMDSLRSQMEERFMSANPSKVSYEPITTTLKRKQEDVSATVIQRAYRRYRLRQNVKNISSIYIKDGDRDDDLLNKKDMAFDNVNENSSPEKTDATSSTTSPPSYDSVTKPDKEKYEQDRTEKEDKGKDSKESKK
T3 sequence (Q07699 19-218 partner): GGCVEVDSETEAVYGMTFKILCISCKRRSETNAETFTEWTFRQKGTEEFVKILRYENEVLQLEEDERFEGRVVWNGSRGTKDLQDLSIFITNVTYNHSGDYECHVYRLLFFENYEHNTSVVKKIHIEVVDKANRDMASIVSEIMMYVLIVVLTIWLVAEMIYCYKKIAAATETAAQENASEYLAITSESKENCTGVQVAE
As to the kind of experiment: Patch voltage clamp electrophysiology assay (EP), NaV1.7. It counts as cell-based. The settings on record: HEK-293 cells stably expressing NaV1.7 with β1 subunit; whole-cell patch clamp, membrane potential −60 mV (inactivated state). The method, boiled down:
as §1

Setting [1] is: human, HEK-293 cells stably expressing human NaV1.5 with β1 subunit, pH 7.4.

T1 sequence (Q15858 1-1977 isoform Q15858-3): as the sequence (Q15858 1-1977 isoform Q15858-3) above
T1 sequence (Q07699 19-218 partner): as the sequence (Q07699 19-218 partner) above

As to `CC(C)[C@H](NC(=O)c1cc(C2CC2)c(OCC23CC4CC(CC(C4)C2)C3)cc1F)C(=O)O` [Example 66, (S)-2-(4-(adamantan-1-ylmethoxy)-5-cyclopropyl-2-fluorobenzamido)-3-methylbutanoic acid], the figures for the IC50 at hNav1.7, on NaV1.5 (read-out: Nav1.5) and against human NaV1.7 were 70 nM, 8100 nM and 800 nM, respectively.

For `CC(C)[C@@H](C(=O)O)N(C)C(=O)c1cc(C2CC2)c(OCC23CC4CC(CC(C4)C2)C3)cc1F` [Example 67, N-(4-(adamantan-1-ylmethoxy)-5-cyclopropyl-2-fluorobenzoyl)-N-methyl-L-valine], the IC50 on hNav1.7 was 1000 nM; at NaV1.5 (read-out: Nav1.5) it was 7500 nM; against human NaV1.7 it was 3000 nM.

As to `CC1(C)CCC(COc2cc(F)c(C(=O)N3CCC[C@H]3C(=O)O)cc2C2CC2)CC1` [Example 68, (S)-1-(5-cyclopropyl-4-((4,4-dimethylcyclohexyl)methoxy)-2-fluorobenzoyl)pyrrolidine-2-carboxylic acid], the results for the IC50 on hNav1.7, on NaV1.5 (read-out: Nav1.5) and on human NaV1.7 were 100 nM, 19000 nM and 520 nM, respectively.

Regarding `O=C(O)[C@@H]1CCCN1C(=O)c1cc(C2CC2)c(OCC23CCCCC2C3)cc1F` (stereo partly drawn) [Example 69, (4-(bicyclo[4.1.0]heptan-1-ylmethoxy)-5-cyclopropyl-2-fluorobenzoyl)-L-proline], the IC50 is 170 nM at hNav1.7, ≥ 30000 nM on NaV1.5 (setting [1]) and 520 nM against human NaV1.7.

With `O=C(O)[C@@H]1CCCN1C(=O)c1cc(C2CC2)c(OC2C3CC4CC(C3)CC2C4)cc1F` (stereo partly drawn) [Example 70, (S)-1-(4-(adamantan-2-yloxy)-5-cyclopropyl-2-fluorobenzoyl)pyrrolidine-2-carboxylic acid], the IC50 on hNav1.7 is 310 nM; against NaV1.5 (setting [1]), ≥ 30000 nM; against human NaV1.7, 1600 nM.

Consider `O=C(O)[C@@H]1CCCN1C(=O)c1cc(F)c(OCC23CC4CC(CC(C4)C2)C3)cc1F` [Example 71, (4-(adamantan-1-ylmethoxy)-2,5-difluorobenzoyl)-L-proline], for which the IC50 was 6100 nM on hNav1.7, ≥ 30000 nM against NaV1.5 (setting [1]) and 11000 nM against human NaV1.7.

In the case of `O=C(O)C1COCCN1C(=O)c1cc(C2CC2)c(OCC23CC4CC(CC(C4)C2)C3)cc1F` (stereo not drawn) [Example 72, 4-(4-(adamantan-1-ylmethoxy)-5-cyclopropyl-2-fluorobenzoyl)morpholine-3-carboxylic acid], the IC50 came to 3600 nM at hNav1.7, 24000 nM on NaV1.5 (read-out: Nav1.5) and 5600 nM at human NaV1.7.

Take `O=C(N[C@H](C(=O)O)C1CC1)c1cc(C2CC2)c(OCC23CC4CC(CC(C4)C2)C3)cc1F` [Example 74, (S)-2-(4-(adamantan-1-ylmethoxy)-5-cyclopropyl-2-fluorobenzamido)-2-cyclopropylacetic acid]: the results for the IC50 on hNav1.7, at NaV1.5 (read-out: Nav1.5) and against human NaV1.7 were 24 nM, 7500 nM and 700 nM, respectively.

On to `O=C(O)[C@@H]1[C@@H](O)CCN1C(=O)c1cc(C2CC2)c(OCC23CC4CC(CC(C4)C2)C3)cc1F` [Example 75, (2S,3S)-1-(4-(adamantan-1-ylmethoxy)-5-cyclopropyl-2-fluorobenzoyl)-3-hydroxypyrrolidine-2-carboxylic acid], for which the IC50 was found to be 600 nM on hNav1.7, 25000 nM at NaV1.5 (read-out: Nav1.5) and 1300 nM at human NaV1.7.

Take `CO[C@H]1CCN(C(=O)c2cc(C3CC3)c(OCC34CC5CC(CC(C5)C3)C4)cc2F)[C@@H]1C(=O)O` [Example 76, (2S,3 S)-1-(4-(adamantan-1-ylmethoxy)-5-cyclopropyl-2-fluorobenzoyl)-3-methoxypyrrolidine-2-carboxylic acid]: the IC50 was 87 nM at hNav1.7, 17000 nM at NaV1.5 (read-out: Nav1.5) and 1000 nM against human NaV1.7.

For the molecule `O=C(NC1(C(=O)O)COC1)c1cc(C2CC2)c(OCC23CC4CC(CC(C4)C2)C3)cc1F` [Example 77, 3-(4-(adamantan-1-ylmethoxy)-5-cyclopropyl-2-fluorobenzamido)oxetane-3-carboxylic acid], the IC50 came to 7400 nM on hNav1.7, 12000 nM on NaV1.5 (read-out: Nav1.5) and 11000 nM at human NaV1.7.

Consider `O=C(O)C1SCCN1C(=O)c1cc(C2CC2)c(OCC23CC4CC(CC(C4)C2)C3)cc1F` (stereo not drawn) [Example 78, 3-(4-(adamantan-1-ylmethoxy)-5-cyclopropyl-2-fluorobenzoyl)thiazolidine-2-carboxylic acid], for which the IC50 at hNav1.7 stood at 9.4 nM; on NaV1.5 (read-out: Nav1.5) it was 13000 nM; against human NaV1.7, 87 nM.

Regarding `O=C(O)[C@@H]1CCCCN1C(=O)c1cc(C2CC2)c(OCC23CC4CC(CC(C4)C2)C3)cc1F` [Example 83, (S)-1-(4-(adamantan-1-ylmethoxy)-5-cyclopropyl-2-fluorobenzoyl)piperidine-2-carboxylic acid], the values for the IC50 on hNav1.7, on NaV1.5 (read-out: Nav1.5) and on human NaV1.7 were 480 nM, 14000 nM and 2000 nM, respectively.

`O=C(O)C[C@H](NC(=O)c1cc(C2CC2)c(OCC23CC4CC(CC(C4)C2)C3)cc1F)C(=O)O` [Example 84, (S)-2-(4-(adamantan-1-ylmethoxy)-5-cyclopropyl-2-fluorobenzamido)succinic acid]: the figures for the IC50 at hNav1.7, at NaV1.5 (setting [1]) and on human NaV1.7 were ≥ 10000 nM, ≥ 30000 nM and 17000 nM, respectively.

Consider `O=C(O)[C@@H]1CCCN1C(=O)c1ccc(OCC23CC4CC(CC(C4)C2)C3)c(C(F)(F)F)c1` [Example 85, (S)-1-(4-(adamantan-1-ylmethoxy)-3-(trifluoromethyl)benzoyl)-pyrrolidine-2-carboxylic acid], for which the IC50 at hNav1.7 came out at 590 nM; at NaV1.5 (read-out: Nav1.5), 17000 nM; on human NaV1.7, 1100 nM.

For `O=C(O)[C@@H]1CCN1C(=O)c1cc(C2CC2)c(OCC23CC4CC(CC(C4)C2)C3)cc1F` [Example 86, (S)-1-(4-(adamantan-1-ylmethoxy)-5-cyclopropyl-2-fluorobenzoyl)azetidine-2-carboxylic acid], the IC50 amounted to 1600 nM at hNav1.7, 26000 nM on NaV1.5 (read-out: Nav1.5) and 1900 nM at human NaV1.7.

On to `CC[C@H](NC(=O)c1cc(C2CC2)c(OCC23CC4CC(CC(C4)C2)C3)cc1F)C(=O)O` [Example 87, (S)-2-(4-(adamantan-1-ylmethoxy)-5-cyclopropyl-2-fluorobenzamido)butanoic acid], for which the IC50 was 56 nM on hNav1.7, 7100 nM on NaV1.5 (read-out: Nav1.5) and 1300 nM against human NaV1.7.

As for `CC(C)C[C@H](NC(=O)c1cc(C2CC2)c(OCC23CC4CC(CC(C4)C2)C3)cc1F)C(=O)O` [Example 88, (S)-2-(4-(adamantan-1-ylmethoxy)-5-cyclopropyl-2-fluorobenzamido)-4-methylpentanoic acid], the results for the IC50 on hNav1.7, at NaV1.5 (read-out: Nav1.5) and at human NaV1.7 were 430 nM, 8200 nM and 7000 nM, respectively.

Regarding `CCc1cc(C(=O)N2CCC[C@H]2C(=O)O)c(F)cc1OCC12CC3CC(CC(C3)C1)C2` [Example 89, (S)-1-(4-(adamantan-1-ylmethoxy)-5-ethyl-2-fluorobenzoyl)pyrrolidine-2-carboxylic acid], the IC50 on hNav1.7 stood at 130 nM; on NaV1.5 (read-out: Nav1.5) it was 17000 nM; against human NaV1.7, 790 nM.

Take `CC1(C)[C@H]2CC[C@H](COc3cc(F)c(C(=O)N4CCC[C@H]4C(=O)O)cc3C3CC3)[C@@H]1C2` [Example 90, (S)-1-(5-cyclopropyl-4-(((1S, 2S, 5S)-6,6-dimethylbicyclo[3.1.1]heptan-2-yl)methoxy)-2-fluorobenzoyl)pyrrolidine-2-carboxylic acid]: the IC50 on hNav1.7 came to 21 nM; on NaV1.5 (read-out: Nav1.5) it was 13000 nM; at human NaV1.7 it was 160 nM.

For the molecule `CC(c1cc(Cl)cc(Cl)c1)N1CCC(COc2cc(F)c(C(=O)N3C[C@H](F)C[C@H]3C(=O)O)cc2C2CC2)CC1` (stereo partly drawn) [Example 91, (2S, 4R)-1-(5-cyclopropyl-4-((1-(1-(3,5-dichlorophenyl)ethyl)piperidin-4-yl)methoxy)-2-fluorobenzoyl)-4-fluoropyrrolidine-2-carboxylic acid], the IC50 on hNav1.7 is 15 nM; on NaV1.5 (read-out: Nav1.5), 23000 nM; against human NaV1.7, 300 nM.

In the case of `O=C(O)[C@@H]1C[C@@H](F)CN1C(=O)c1cc(C2CC2)c(OCC2CCN(Cc3cc(C(F)(F)F)cc(C4CC4)n3)CC2)cc1F` [Example 93, (2S, 4R)-1-(5-cyclopropyl-4-((1-((6-cyclopropyl-4-(trifluoromethyl)-pyridin-2-yl)methyl)piperidin-4-yl)methoxy)-2-fluorobenzoyl)-4-fluoropyrrolidine-2-carboxylic acid], the IC50 is 81 nM at hNav1.7, ≥ 30000 nM against NaV1.5 (setting [1]) and 660 nM against human NaV1.7.

Regarding `O=C(O)[C@@H]1C[C@@H](F)CN1C(=O)c1cc(C2CC2)c(OCCC2CCN(Cc3cc(Cl)cc(Cl)c3)CC2)cc1F` [Example 94, (2S, 4R)-1-(5-cyclopropyl-4-(2-(1-(3,5-dichlorobenzyl)piperidin-4-yl)ethoxy)-2-fluorobenzoyl)-4-fluoropyrrolidine-2-carboxylic acid], the IC50 was 100 nM at hNav1.7, ≥ 30000 nM at NaV1.5 (setting [1]) and 600 nM on human NaV1.7.

As to `O=C(O)C1CC=NN1C(=O)c1cc(C2CC2)c(OCC23CC4CC(CC(C4)C2)C3)cc1F` (stereo not drawn) [Example 96, 1-(4-(adamantan-1-ylmethoxy)-5-cyclopropyl-2-fluorobenzoyl)-4,5-dihydro-1H-pyrazole-5-carboxylic acid], the IC50 on hNav1.7 is 380 nM; on NaV1.5 (setting [1]), ≥ 30000 nM; against human NaV1.7 it was 1500 nM.
